# Laboratory results published in patent US20190183114A1, “METHODS AND COMPOSITIONS FOR THE PRESERVATIONOF ORGANS” (INSERM (Institut National de la Sante et de la Recherche …, priority 2016, published 2019).
# Entries after “also recorded” stand apart in the source; their conditions may differ.
# Assays:
# Format in all cases: cell-based, human
# [1] = test system: HAEC; experiment: XTT viability assay on HAEC subjected to 24 h of cold ischemia followed by 6 h of reperfusion; conditions: for cell viability / survival after ischemia reperfusion (XTT): 24 h ischemia + 6 h reperfusion, treated during hypoxia from start (AEBSF 300 μM, Salubrinal 75 μM, STF083010 10 μM, 4μ8c 10 μM); for protection against cell death, treatment delayed by 12 h after start of cold ischemia: treatment after 12 h; for protection against cell death, treatment delayed by 12 h after start of cold ischemia / protection against cell death, treatment delayed by 6 h after start of cold ischemia: data not shown; for protection against cell death, treatment delayed by 6 h after start of cold ischemia: treatment only at 6 h
# Protocol: Primary human aortic endothelial cells (HAEC) were obtained from Gibco (Lot No: #765093 and Lot No: #999999) and cultured on 1% gelatin (Sigma) coated flasks of 75 cm^2 in M200 medium supplemented with LSGS (Gibco), 8% fetal bovine serum (FBS), and 100 μg/mL penicillin and streptomycin in a humidified atmosphere at 21% O2, 5% CO2 and 37° C. The cells were split at a ratio of 1:4 every 5 days. Cells up to passage 5 were used in this study. All cell culture media, serum, and supplements were purchased from Invitrogen. STF083010 (10 μM) and 4μ8c (10 μM) were purchased from Axon MedChem. Salubrinal (75 μM) was from R&D. Tunicamycin ([…]), sodium 4-phenylbutyrate (1 mM), and 4-(2-Aminoethyl)benzenesulfonyl fluoride (AEBSF, 300 μM) were from Sigma. All chemicals were dissolved in DMSO (Sigma). IRE1α^−/− and IRE1α^+/+—which are IRE1α^−/− cells rescued by a retrovirus encoding a Flag-tagged human IRE1α—murine embryonic cells (MEC) were produced as previously described (Volmer R, Ploeg K van der, Ron D. Membrane lipid saturation activates endoplasmic reticulum unfolded protein response transducers through their transmembrane domains. Proc. Natl. Acad. Sci. 2013; 201217611). MEC were cultured in DMEM high-glucose media (Gibco) supplemented with 10% FBS, non-essential amino acids (Gibco), penicillin and streptomycin (Gibco), L-glutamine (Gibco), and puromycin (3 μg/mL).
# (§1) HAEC were washed with PBS before being incubated in cold University of Wisconsin (UW) preservation solution in a chamber with hypothermic (4° C.) hypoxic atmosphere obtained by flushing the chamber atmosphere with Bactal 2 (0% O2, 95% N2 and 5% CO2) until the reach of 0% 02 in the chamber atmosphere. The oxygen level was controlled with the oximeter Oxy-4 micro from PreSens Precision Sensing GmbH with channels present in the outside atmosphere, the chamber atmosphere, and the cell supernatant. To perform the normothermic reoxygenation, cells were washed with PBS and then incubated with M200 supplemented with 2% FBS in a humidified atmosphere at 21% O2, 5% CO2 and 37° C. The durations of both hypoxia and reoxygenation are indicated in figure legends and in the manuscript.
# Reverse transfection were performed using ON-TARGETplus SMART pool siRNAs targeting IRE1α (#L-004951-02-0005), XBP1 (#L-009552-00-0005), PERK (#L-004883-00-0005), ATF4 (#L-005125-00-0005), ATF6 (#L-009917-00-0005), or ON-TARGETplus Non-targeting Pool control siRNAs (#D-001810-10-05). They were purchased from Dharmacon and used at a final concentration of 20 nM. The transfection was performed using Lipofectamine RNAiMAX and Opti-MEM reduced serum medium according to the manufacturer's instructions (Invitrogen). After 6 hours of transfection, the cell medium was replaced with fresh cell culture medium containing 10% of FBS, LSGS but no antibiotics and no antimycotics. After 24 hours of transfection, cells were subjected to hypoxia-reoxygenation experiments. For cells in 96- and 24-wells plates, cell viability was analyzed according to protocol provided (XTT cell proliferation kit II, Roche Diagnostics) while cells in 6-wells were subjected to RT-qPCR analysis to detect knockdown efficiency.
# [2] = test system: CHOP; experiment: RT-qPCR of CHOP mRNA in tunicamycin-treated HAEC; conditions: 6 h tunicamycin, hydrochloride
# Protocol: (§2) Primary human aortic endothelial cells (HAEC) were obtained from Gibco (Lot No: #765093 and Lot No: #999999) and cultured on 1% gelatin (Sigma) coated flasks of 75 cm^2 in M200 medium supplemented with LSGS (Gibco), 8% fetal bovine serum (FBS), and 100 μg/mL penicillin and streptomycin in a humidified atmosphere at 21% O2, 5% CO2 and 37° C. The cells were split at a ratio of 1:4 every 5 days. Cells up to passage 5 were used in this study. All cell culture media, serum, and supplements were purchased from Invitrogen. STF083010 (10 μM) and 4μ8c (10 μM) were purchased from Axon MedChem. […]
# (§3) RNA was extracted from HAEC using the NucleoSpin RNA kit (Macherey-Nagel) containing a DNase treatment to remove potentially contaminating genomic DNA. […] A quantity of 1 μg of total RNA was reverse-transcribed with High Capacity cDNA Reverse Transcription kit (ABsystems). RT-qPCR was performed in triplicate with negative template controls, negative enzyme controls and the use of a calibrator to limit inter-run variations as recommended by the MIQE guidelines (Bustin S A, Benes V, Garson J A, Hellemans J, Huggett J, Kubista M, et al. The MIQE Guidelines: Minimum Information for Publication of Quantitative Real-Time PCR Experiments. Clin. Chem. 2009; 55:611-22). […]
# [3] = test system: ATF6; experiment: RT-qPCR of ATF6 downstream targets HerpUD and GRP78 in tunicamycin-treated HAEC; conditions: 6 h tunicamycin
# Protocol: as §2, §3
# [4] = test system: ATF6; experiment: Western blot analysis of ATF6 at different times of ischemia; conditions: data not shown
# Protocol: as §1
# (§4) HAEC were washed in cold PBS and resuspended in complete lysis buffer (Roche Diagnostics, #04719956001) before being sonicated at output power of 2 for 3 seconds (Branson Sonifier 450). The protein concentration of cell lysate supernatants was measured by BCA protein assay (Bio-Rad, #23225). […] The bound primary antibodies were detected with ChemiDoc™ MP imager (Bio-Rad) by the use of HRP-conjugated secondary antibody and the ECL detection system (Amersham Biosciences). […]
# [5] = test system: CHOP; experiment: RT-qPCR of CHOP mRNA in HAEC subjected to 24 h of ischemia
# Protocol: as §1, with “The durations of both hypoxia and reoxygenation are indicated in figure legends and in the manuscript.” left out
# as §3
# [6] = test system: IRE1α's RNase activity; experiment: XBP1 mRNA splicing in cells subjected to 6 h ischemia; conditions: data not shown
# Protocol: as §1
# We followed the method used in (Fougeray S, Bouvier N, Beaune P, Legendre C, Anglicheau D, Thervet E, et al. Metabolic stress promotes renal tubular inflammation by triggering the unfolded protein response. Cell Death Dis. 2011; 2:e143). The XBP1 cDNA encompassing the region of restriction site was amplified by PCR. […] The spliced isoform of XBP1 mRNA was resistant to Pst1 and was detected as a 448-bp amplification product whereas the unspliced isoform, containing Pst1 restriction site, was detected by the presence of two amplification products of 291-bp and 183-bp (FIG. 8A, right).
# [7] = test system: IRE1α's RNase activity; experiment: XBP1s and Erdj4 expression in tunicamycin-stimulated cells; conditions: data not shown
# Protocol: as §2, §3
# [8] = test system: ATF4; experiment: ATF4 production in EC subjected to 6 h of ischemia; conditions: data not shown
# Protocol: as §1, §4
smiles,measurement,setting,value
Cc1cc(=O)oc2c(C=O)c(O)ccc12 [4μ8c],cell viability / survival after ischemia reperfusion (XTT),[1],increased EC survival
"Cl.NCCc1ccc(S(=O)(=O)F)cc1 [AEBSF, 4-(2-Aminoethyl) benzenesulfonyl fluoride hydrochloride]",CHOP mRNA expression,[2],decreases CHOP expression; also recorded: lower CHOP mRNA expression
same,GRP78 mRNA expression,[3],decreased
same,HerpUD mRNA expression,[3],decreased
same,cell viability / survival after ischemia reperfusion (XTT),[1]; hydrochloride,improves viability; also recorded: protected endothelial cells against cold ischemia-induced death; also recorded: correctly protected EC against death
same,"protection against cell death, treatment delayed by 12 h after start of cold ischemia",[1],protective effect was significantly lost
same,"protection against cell death, treatment delayed by 6 h after start of cold ischemia",[1],trend towards decreased protection
"O=S(=O)(N=Cc1c(O)ccc2ccccc12)c1cccs1 [STF083010, N-[(2-Hydroxy-1-naphthalenyl)methylene]-2-thiophenesulfonamide]",ATF6 expression (Western blot),[4]; after 12 h of ischemia,trend towards increased ATF6 expression
same,ATF6 expression (Western blot),[4]; at 24 h of ischemia,no significant differences
same,CHOP mRNA expression,[5],decreased CHOP mRNA expression
same,CHOP mRNA expression,[5]; listed as STF,significantly decreased CHOP expression to control levels
same,XBP1 mRNA splicing,[6],inhibited splicing
same,Erdj4 expression,[7],abrogated
same,XBP1s expression,[7],abrogated
same,cell viability / survival after ischemia reperfusion (XTT),[1],improves viability; also recorded: increased EC survival
same,cell viability / survival after ischemia reperfusion (XTT),[1]; listed as STF,significantly increased EC survival
same,"protection against cell death, treatment delayed by 12 h after start of cold ischemia",[1],did not alter the protection
same,"protection against cell death, treatment delayed by 6 h after start of cold ischemia",[1],did not alter the protection
"O=C(C=Cc1ccccc1)NC(NC(=S)Nc1cccc2cccnc12)C(Cl)(Cl)Cl (stereo not shown) [Salubrinal, 3-phenyl-N-[2,2,2-trichloro-1-[[(8-quinolinylamino)thioxomethyl]amino]ethyl]-2-propenamide]",ATF4 production,[8],effectively increased
same,cell viability / survival after ischemia reperfusion (XTT),[1],improves viability; also recorded: significantly increased EC survival
same,cell viability / survival after ischemia reperfusion (XTT),[1]; listed as Salubinal,significantly protected cells against death
same,"protection against cell death, treatment delayed by 6 h after start of cold ischemia",[1],lost
